In test [1] the test system is Clostridium difficile (Clostridioides difficile), Mouse Strain VPI 10463 (ATCC 43255). The test is described as follows: MIC on Clostridium difficile mouse strain VPI 10463. The format is cell-based. Conditions: ATCC43255, 48 hours, presence/absence of growth, tested 0.015-250 μM. The procedure: Determination of Minimal Inhibitory Concentrations (MICs) of Bile Acid Derivatives on Clostridium difficile (Clostridioides difficile), Mouse Strain VPI 10463 (ATCC 43255)
Concentrations (0.015-250 μM) of test compounds are prepared by serial two-fold dilutions in pre-reduced brain heart infusion (BHI) broth. To each well containing test article, approximately 5×10^5 CFU of bacteria are added and incubated for 48 hours in an anaerobic chamber at 37° C. Following incubation, the MIC of each test article is determined by presence/absence of bacterial growth in each well.

Test [2] has as its target T1, vitamin D receptor (VDR; NR1I1) (Homo sapiens, UniProt P11473).
T1 construct: expressed in transfected cells; host or cells: HEK293
T1 sequence (P11473 88-427): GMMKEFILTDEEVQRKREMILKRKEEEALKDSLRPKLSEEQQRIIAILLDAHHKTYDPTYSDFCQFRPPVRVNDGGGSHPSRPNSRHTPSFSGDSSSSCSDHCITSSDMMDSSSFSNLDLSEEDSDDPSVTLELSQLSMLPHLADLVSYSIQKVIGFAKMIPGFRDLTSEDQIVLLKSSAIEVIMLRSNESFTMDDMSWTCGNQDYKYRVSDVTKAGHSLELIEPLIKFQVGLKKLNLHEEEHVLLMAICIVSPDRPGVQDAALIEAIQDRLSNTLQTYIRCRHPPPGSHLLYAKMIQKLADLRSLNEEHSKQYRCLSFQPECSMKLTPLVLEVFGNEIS
The test is described as follows: One-hybrid reporter assay for the vitamin D receptor. Particulars: result in words. It is filed as cell-based. On the technique in general: Reporter assays use an easily measured gene product as a stand-in for the process of interest.
Procedure: The vitamin D receptor (VDR; NR1I1) reporter assay was performed by transient co-transfection of HEK293 cells with pCMV-BD (Stratagene #211342) containing the GAL4 DNA-binding domain fused with the ligand binding domain of VDR (Genbank accession no. NP_000378, aa 88-427), pFR-Luc reporter and pRL-CMV reporter (Promega #E2261) using PEI solution (Sigma Aldrich cat #40872-7) in a 96-well plate. Cells were incubated for 4-6 hours, and then cultured in MEM supplemented with 8.7% FCS, Glutamax, NEAA, sodium pyruvate and Pen/Strep in the presence of test compounds for 16-20 hours. Cells were incubated for 4 to 6 hours in 30 μL/well transfection mix in OPTIMEM and then cultured for further 16 to 20 hours after addition of 120 μL MEM supplemented with 8.7% FCS, Glutamax, NEAA, sodium pyruvate and Pen/Strep in the presence of test compounds. Medium was removed and cells were lysed with 1× Passive Lysis Buffer (Promega). Firefly luciferase buffer was then added and firefly luciferase luminescence was read on BMG LUMIstar OMEGA luminescence plate reader. One second later, renilla luciferase buffer was added and renilla luciferase luminescence was read to evaluate cell viability and to be able to normalize for well to well differences in transfection efficiency.

Values after ≈ are worked out from the molar mass of the structure shown.

Results on one compound are retold here after US20210323995A1, “ISOLITHOCHOLIC ACID OR ISOALLOLITHOCHOLIC ACID AND DEUTERATED DERIVATIVES THEREOF FOR PREVENTING AND TREATING CLOSTRIDIUM DIFFICILE-ASSOCIATED DISEASES” (PHENEX PHARMACEUTICALS AG, priority 2018, published 2021).

As to `C[C@H](CCC(=O)O)[C@H]1CC[C@H]2[C@@H]3CC[C@@H]4C[C@@H](O)CC[C@]4(C)[C@H]3CC[C@]12C` [Example 1, Isolithocholic Acid], it took 15.6 µM (≈ 5.87 µg/mL) to inhibit growth in test [1] (MIC). In addition, the “Vitamin D agonism” value in test [2] is reported as “devoid of this Vitamin D agonism”.
